This passage reports EC50, IC50 and CC50 results from ChEMBL document CHEMBL5241090, “A comprehensive overview of β-carbolines and its derivatives as anticancer agents” (Eur J Med Chem, 2021).

Converted amounts (≈) assume the structure as drawn.

One experiment deals with KB. The experiment in a line: Cytotoxicity against human KB cells assessed as inhibition of growth measured after 1 day by hemacytometer. It is filed as functional. The note with it: 24 h, read-out: ED50 (the source's name).
The test system of another experiment is HCT-116. The experiment in a line: Cytotoxicity against human HCT-116 cells by MTT assay. The format is functional, cell-based.
Experiment [1] relates to MCF7. As to the kind of experiment: Cytotoxicity against human MCF7 cells by MTT assay. It is filed as functional, cell-based.
The subject of a further experiment is OVCAR-3. As to the kind of experiment: Cytotoxicity against human OVCAR-3 cells by MTT assay. The format is functional, cell-based.
Experiment [2] has as its system MCF7. As to the kind of experiment: Cytotoxicity against human MCF7 cells measured after 24 hrs by MTT assay. The note with it: MCF7, 24 h. The format is functional, cell-based.
The test system of experiment [3] is A549. The experiment in a line: Cytotoxicity against human A549 cells measured after 24 hrs by MTT assay. It is filed as functional, cell-based. The note with it: A549, 24 h.
The next experiment deals with A2780. As to the kind of experiment: Cytotoxicity against human A2780 cells measured after 24 hrs by MTT assay. The note with it: A2780, 24 h. The format is functional, cell-based.
Another experiment deals with COLO 205. As to the kind of experiment: Cytotoxicity against human COLO 205 cells measured after 24 hrs by MTT assay. The format is functional, cell-based. The note with it: COLO 205, 24 h.
Experiment [4] deals with T1, Kinesin-like protein KIF11 (Homo sapiens, UniProt P52732).
T1 sequence (P52732 whole entry): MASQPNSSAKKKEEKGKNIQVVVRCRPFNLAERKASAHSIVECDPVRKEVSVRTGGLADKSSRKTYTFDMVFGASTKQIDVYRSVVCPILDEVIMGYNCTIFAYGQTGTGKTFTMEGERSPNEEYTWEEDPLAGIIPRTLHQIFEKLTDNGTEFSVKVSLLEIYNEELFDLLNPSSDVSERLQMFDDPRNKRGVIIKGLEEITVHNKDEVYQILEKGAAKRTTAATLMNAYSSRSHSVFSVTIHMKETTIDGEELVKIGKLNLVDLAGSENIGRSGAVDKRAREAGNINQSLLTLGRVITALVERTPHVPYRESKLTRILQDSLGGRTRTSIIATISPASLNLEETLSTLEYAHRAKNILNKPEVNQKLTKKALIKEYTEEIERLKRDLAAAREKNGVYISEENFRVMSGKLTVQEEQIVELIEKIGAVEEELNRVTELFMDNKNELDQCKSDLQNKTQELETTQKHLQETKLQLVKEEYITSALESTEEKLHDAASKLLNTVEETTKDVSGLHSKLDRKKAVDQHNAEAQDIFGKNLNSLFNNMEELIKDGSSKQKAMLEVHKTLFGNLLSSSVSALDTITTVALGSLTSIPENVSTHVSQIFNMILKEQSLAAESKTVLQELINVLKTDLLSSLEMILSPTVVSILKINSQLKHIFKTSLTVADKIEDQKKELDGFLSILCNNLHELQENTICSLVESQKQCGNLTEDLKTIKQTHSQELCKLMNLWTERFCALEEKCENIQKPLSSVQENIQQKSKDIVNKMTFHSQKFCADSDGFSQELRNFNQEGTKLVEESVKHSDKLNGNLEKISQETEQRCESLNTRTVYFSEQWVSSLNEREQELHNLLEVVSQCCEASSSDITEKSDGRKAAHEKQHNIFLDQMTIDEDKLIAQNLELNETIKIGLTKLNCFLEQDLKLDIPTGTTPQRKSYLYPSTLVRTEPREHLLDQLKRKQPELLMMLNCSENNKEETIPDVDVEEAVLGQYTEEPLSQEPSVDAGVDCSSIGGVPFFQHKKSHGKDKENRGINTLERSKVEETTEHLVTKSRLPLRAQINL
As to the kind of experiment: Inhibition of KSP (unknown origin).

The target of the next experiment is T2, DNA topoisomerase 1 (Homo sapiens, UniProt P11387).
T2 sequence (P11387 whole entry): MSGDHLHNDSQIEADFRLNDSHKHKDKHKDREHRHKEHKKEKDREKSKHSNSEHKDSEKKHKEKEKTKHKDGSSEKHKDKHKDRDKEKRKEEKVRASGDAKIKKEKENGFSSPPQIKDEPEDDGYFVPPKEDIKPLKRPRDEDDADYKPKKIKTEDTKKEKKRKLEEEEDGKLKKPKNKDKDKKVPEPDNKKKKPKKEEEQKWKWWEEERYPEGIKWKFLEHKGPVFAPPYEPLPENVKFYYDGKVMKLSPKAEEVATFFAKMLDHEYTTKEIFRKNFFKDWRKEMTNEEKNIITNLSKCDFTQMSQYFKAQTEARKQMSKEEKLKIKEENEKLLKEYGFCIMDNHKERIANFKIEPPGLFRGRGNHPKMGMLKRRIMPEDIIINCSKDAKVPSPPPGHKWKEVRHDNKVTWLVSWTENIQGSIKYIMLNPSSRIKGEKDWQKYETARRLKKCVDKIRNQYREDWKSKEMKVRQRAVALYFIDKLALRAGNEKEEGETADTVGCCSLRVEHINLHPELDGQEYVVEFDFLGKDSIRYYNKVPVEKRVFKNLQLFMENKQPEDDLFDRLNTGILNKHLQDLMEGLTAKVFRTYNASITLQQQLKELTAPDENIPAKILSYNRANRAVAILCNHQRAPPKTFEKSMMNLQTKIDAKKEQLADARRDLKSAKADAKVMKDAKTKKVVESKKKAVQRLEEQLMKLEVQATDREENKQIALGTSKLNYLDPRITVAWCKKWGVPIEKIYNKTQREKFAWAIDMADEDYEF
As to the kind of experiment: Inhibition of Topoisomerase 1 (unknown origin).

Experiment [5] in a line: Cytotoxicity against human 95-D cells assessed as reduction in optical density by MTT assay. The format is functional, cell-based.
The next experiment has as its system SGC-7901. The experiment in a line: Cytotoxicity against human SGC-7901 cells assessed as reduction in optical density by MTT assay. The format is functional, cell-based.
Experiment [6] relates to HepG2. The experiment in a line: Cytotoxicity against human HepG2 cells assessed as reduction in optical density by MTT assay. The format is functional, cell-based.
Experiment [7] concerns HepG2. The experiment in a line: Cytotoxicity against human HepG2 cells. The note with it: read-out: TC50 (the source's name). It is filed as functional, cell-based.
A further experiment deals with Keratinocyte. As to the kind of experiment: Cytotoxicity against guinea pig ear keratinocytes using [3H]thymidine by liquid scintillation counting analysis. It is filed as functional, cell-based. The note with it: Cavia porcellus.
For the next experiment, the system named is Col2. As to the kind of experiment: Cytotoxicity against human Col2 cells. It is filed as functional, cell-based.
The subject of another experiment is HUVEC. As to the kind of experiment: Cytotoxicity against human HUVEC cells. It is filed as functional, cell-based.
Another experiment deals with LNCaP. The experiment in a line: Cytotoxicity against human LNCaP cells. The format is functional, cell-based.
Experiment [8] is described as follows: Cytotoxicity against human Lu1 cells. The format is functional, cell-based.
Another experiment relates to TERT-RPE1. The experiment in a line: Cytotoxicity against human TERT-RPE1 cells. It is filed as functional, cell-based. The note with it: RPE-1.
The test system of a further experiment is ACHN. As to the kind of experiment: Cytotoxicity against human ACHN cells. The format is functional, cell-based.
Experiment [9] has as its system DU-145. The experiment in a line: Cytotoxicity against human DU-145 cells. It is filed as functional, cell-based.
Experiment [10] relates to A549. As to the kind of experiment: Cytotoxicity against human A549 cells. The format is functional, cell-based.
The test system of experiment [11] is MCF7. As to the kind of experiment: Cytotoxicity against human MCF7 cells. The format is functional, cell-based.
For another experiment, the system named is HeLa. As to the kind of experiment: Cytotoxicity against human HeLa cells. It is filed as functional, cell-based.
In another experiment the test system is HCC1395. As to the kind of experiment: Antiproliferative activity against human HCC1395 cells incubated for 48 hrs by MTT assay. It is filed as functional, cell-based. The note with it: HCC1395, 48 h.
Experiment [12] relates to DU-145. As to the kind of experiment: Antiproliferative activity against human DU-145 cells incubated for 48 hrs by MTT assay. It is filed as functional, cell-based. The note with it: DU-145, 48 h.

On to `COc1cccc2c1c1c(O)cnc3ccc(=O)n2c31`, for which, in the experiment on KB, the EC50 stood at 2 µg/mL (≈ 7.51 µM).

`COc1ccc2c3ccnc(C)c3n(CC(=O)N/N=C/c3ccc(C(C)(C)C)cc3)c2c1`: the IC50 in the experiment with HCT-116 came out at 5 µM; in the experiment with MCF7 [1], 4 µM; in the experiment with OVCAR-3, 2.5 µM.

In the case of `COc1ccc(C(=O)n2c3ccccc3c3ccnc(-c4cc(-c5ccc(-c6nc7ccccc7s6)cc5)no4)c32)c(OC)c1OC`, the IC50 with MCF7 [2] was 0.1 µM; in the experiment on A549 [3], 0.14 µM; in the experiment on A2780, 0.19 µM; in the experiment on COLO 205, 0.64 µM.

Consider `CSc1nnc(-c2cc3c([nH]c4ccccc43)c(-c3cccc(O)c3)n2)o1`, for which the results for the IC50 (in experiment [4]; against DNA topoisomerase 1) were 8.73 µM and 7.8 µM, respectively.

For the compound `COc1ccc2c3ccnc(C)c3n(C)c2c1`, the IC50 (in experiment [5]; in the experiment on SGC-7901; in the experiment on HepG2 [6]) was less than 36 µM in each case.

Regarding `COc1ccc2c3ccnc(C)c3n(CC3CC(c4ccccc4)=NO3)c2c1` (configuration not stated), inhibition in the experiment with MCF7 [1] was half-maximal at 0.8 µM (IC50).

For `Cc1ccc(-n2c(-c3cc4c([nH]c5ccccc54)c(-c4cccc(O)c4)n3)n[nH]c2=S)cc1`, the values for the half-maximal inhibitory concentration (IC50) (in experiment [4]; on DNA topoisomerase 1) were 8.91 µM and 2.5 µM, respectively.

Consider `O=C(O)[C@@H](O)Cc1nccc2c1[nH]c1ccccc12`, for which the CC50 in the experiment with HepG2 [7] is more than 50 µM.

As for `O=C(O)[C@H](O)Cc1nccc2c1[nH]c1ccccc12`, the CC50 in the experiment on HepG2 [7] stood at 39 µM.

On to `O=C(NNC(=S)Nc1ccc(Br)cc1)c1cc2c([nH]c3ccccc32)c(-c2cccc(O)c2)n1`, for which the values for the IC50 (in experiment [4]; at DNA topoisomerase 1) were 13.4 µM and 5.8 µM, respectively.

As for `COc1cnc2ccc(=O)n3c4ccccc4c1c23`, the IC50 in the experiment on Keratinocyte is 5.76 µg/mL (≈ 23 µM).

`O=c1cc2c3ccccc3n3c(=O)ccc([nH]1)c23`: the IC50 (in the experiment with Col2; with HUVEC; with LNCaP; in experiment [8]; in the experiment on TERT-RPE1) was 0.506 µM in each case.

Regarding `O=C(/C=C/c1cc2c([nH]c3ccccc32)c(-c2ccc(C(F)(F)F)cc2)n1)c1ccco1`, the half-inhibitory concentration (IC50) in the experiment with ACHN, with DU-145 [9], with A549 [10], in the experiment on MCF7 [11] and in the experiment on HeLa was 1.89 µM in each case.

Consider `COc1ccc2c(c1)c1ccnc3ccc(=O)n2c31`, for which the values for the IC50 in the experiment on HCC1395 and with DU-145 [12] were 14.7 µg/mL (≈ 58.7 µM) and 1.58 µg/mL (≈ 6.31 µM), respectively.

In the case of `COC(=O)c1cc2c([nH]c3ccccc32)c(C(C)=O)n1`, in the experiment on HCT-116, the midpoint of inhibition, the IC50, lay at 9.67 µg/mL.

Regarding `COc1ccc2c3ccnc(C)c3n(CCCc3ccccc3)c2c1`, the IC50 in experiment [5] was 36 µM; with SGC-7901, less than 36 µM; in the experiment with HepG2 [6], less than 36 µM.
